Measurements published in patent publication US10100058B2, “Fused heterocyclic compounds as CaM kinase inhibitors” (Gilead Sciences, Inc., priority 2016, dated 2018).

Molecular target: recombinant CaMKIIδ (Homo sapiens (Human), UniProt Q13557)
Assay: CaMKIIδ biochemical assay (HTRF)
Settings: 10 pM CaMKIIδ, 110 nM calmodulin, 12 μM ATP, 1 hour; read-out: CAMKIID-HTRF-384V2 (IC50 - nM)
Procedure: CaMKIIδ Biochemical Assay
The biochemical activity of recombinant CaMKIIδ was measured by monitoring the phosphorylation of a target peptide using Homogenous Time Resolved Fluorescence (HTRF) technology from CisBio Bioassays.

| SMILES | IC50 |
| --- | --- |
| CCN(CC)[C@@H](C)CNC(=O)c1cc(-c2cnn3ccc(-c4cccs4)nc23)nc(N2CC(O)(C3CC3)C2)c1 [Example 217, (S)-2-(3-cyclopropyl-3-hydroxyazetidin-1-yl)-N-(2-(diethylamino)propyl)-6-(5-(thiophen-2-yl)pyrazolo[1,5-a]pyrimidin-3-yl)isonicotinamide] | 0.18 nM |
| CCN(CC)[C@@H](C)CNC(=O)c1cc(NCCCOC)nc(-c2cnn3ccc(-c4cccs4)nc23)c1 [Example 218, (S)—N-(2-(diethylamino)propyl)-2-((3-methoxypropyl)amino)-6-(5-(thiophen-2-yl)pyrazolo[1,5-a]pyrimidin-3-yl)isonicotinamide] | 0.17 nM |
| CCN(CC)[C@@H](C)CNC(=O)c1cc(-c2cnn3ccc(-c4cccs4)nc23)nc(N2CC(O)(C(F)(F)F)C2)c1 [Example 219, (S)—N-(2-(diethylamino)propyl)-2-(3-hydroxy-3-(trifluoromethyl)azetidin-1-yl)-6-(5-(thiophen-2 yl)pyrazolo[1,5-a]pyrimidin-3-yl)isonicotinamide] | 0.21 nM |
| CCN(CC)[C@@H](C)CNC(=O)c1cc(NC2CCOCC2)nc(-c2cnn3ccc(-c4cccs4)nc23)c1 [Example 222, (S)—N-(2-(diethylamino)propyl)-2-((tetrahydro-2H-pyran-4-yl)amino)-6-(5-(thiophen-2-yl)pyrazolo[1,5-a]pyrimidin-3-yl)isonicotinamide] | 0.17 nM |
| CCN(CC)[C@@H](C)CNC(=O)c1cc(NCCN2CCOCC2)nc(-c2cnn3ccc(-c4cccs4)nc23)c1 [Example 223, (S)—N-(2-(diethylamino)propyl)-2-((2-morpholinoethyl)amino)-6-(5-(thiophen-2-yl)pyrazolo[1,5-a]pyrimidin-3-yl)isonicotinamide] | 0.14 nM |
| CCN(CC)[C@@H](C)CNC(=O)c1cc(NCCN2CC(F)(F)C2)nc(-c2cnn3ccc(-c4cccs4)nc23)c1 [Example 224, (S)—N-(2-(diethylamino)propyl)-2-((2-(3,3-difluoroazetidin-1-yl)ethyl)amino)-6-(5-(thiophen-2-yl)pyrazolo[1,5-a]pyrimidin-3-yl)isonicotinamide] | 0.21 nM |
| CCN(CC)[C@@H](C)CNC(=O)c1cc(-c2cnn3ccc(-c4cccs4)nc23)nc(N2CC(F)(F)C(F)(F)C2)c1 [Example 230, (S)—N-(2-(diethylamino)propyl)-2-(3,3,4,4-tetrafluoropyrrolidin-1-yl)-6-(5-(thiophen-2-yl)pyrazolo[1,5-a]pyrimidin-3-yl)isonicotinamide] | 1.8 nM |
| CCN(CC)[C@@H](C)CNC(=O)c1cc(-c2cnn3ccc(-c4cccs4)nc23)nc(N2CCC(F)(F)C2)c1 [Example 232, (S)—N-(2-(diethylamino)propyl)-2-(3,3-difluoropyrrolidin-1-yl)-6-(5-(thiophen-2-yl)pyrazolo[1,5-a]pyrimidin-3-yl)isonicotinamide] | 0.28 nM |
| CCN(CC)[C@@H](C)CNC(=O)c1cc(-c2cnn3ccc(-c4cccs4)nc23)nc(N2CCC3(COC3)C2)c1 [Example 233, (S)—N-(2-(diethylamino)propyl)-2-(2-oxa-6-azaspiro[3.4]octan-6-yl)-6-(5-(thiophen-2-yl)pyrazolo[1,5-a]pyrimidin-3-yl)isonicotinamide] | 0.18 nM |
| CCN(CC)[C@@H](C)CNC(=O)c1cc(-c2cnn3ccc(-c4cccs4)nc23)nc(N2CCC23COC3)c1 [Example 234, (S)—N-(2-(diethylamino)propyl)-2-(6-oxa-1-azaspiro[3.3]heptan-1-yl)-6-(5-(thiophen-2-yl)pyrazolo[1,5-a]pyrimidin-3-yl)isonicotinamide] | 1.28 nM |
| CCN(CC)[C@@H](C)CNC(=O)c1cc(N[C@H](C)C(N)=O)nc(-c2cnn3ccc(-c4cccs4)nc23)c1 [Example 235, 2-(((R)-1-amino-1-oxopropan-2-yl)amino)-N—((S)-2-(diethylamino)propyl)-6-(5-(thiophen-2-yl)pyrazolo[1,5-a]pyrimidin-3-yl)isonicotinamide] | 1.83 nM |
| CCN(CC)[C@@H](C)CNC(=O)c1cc(N[C@@H](C)C(N)=O)nc(-c2cnn3ccc(-c4cccs4)nc23)c1 [Example 236, 2-(((S)-1-amino-1-oxopropan-2-yl)amino)-N—((S)-2-(diethylamino)propyl)-6-(5-(thiophen-2-yl)pyrazolo[1,5-a]pyrimidin-3-yl)isonicotinamide] | 0.83 nM |
| CCN(CC)[C@@H](C)CNC(=O)c1cc(NCC(N)=O)nc(-c2cnn3ccc(-c4cccs4)nc23)c1 [Example 238, (S)-2-((2-amino-2-oxoethyl)amino)-N-(2-(diethylamino)propyl)-6-(5-(thiophen-2-yl)pyrazolo[1,5-a]pyrimidin-3-yl)isonicotinamide] | 0.28 nM |
| CCN(CC)[C@@H](C)CNC(=O)c1cc(N[C@H](C)C(=O)NC)nc(-c2cnn3ccc(-c4cccs4)nc23)c1 [Example 239, N—((S)-2-(diethylamino)propyl)-2-(((R)-1-(methylamino)-1-oxopropan-2-yl)amino)-6-(5-(thiophen-2-yl)pyrazolo[1,5-a]pyrimidin-3-yl)isonicotinamide] | 3.66 nM |

Compounds with a lower IC50, results first:

| IC50 | SMILES |
| --- | --- |
| 0.11 nM | CCN(CC)[C@@H](C)CNC(=O)c1cc(NCCCO)nc(-c2cnn3ccc(-c4cccs4)nc23)c1 [Example 220, (S)—N-(2-(diethylamino)propyl)-2-((3-hydroxypropyl)amino)-6-(5-(thiophen-2-yl)pyrazolo[1,5-a]pyrimidin-3-yl)isonicotinamide] |
| 0.13 nM | CCN(CC)[C@@H](C)CNC(=O)c1cc(NCCC(C)(C)O)nc(-c2cnn3ccc(-c4cccs4)nc23)c1 [Example 221, (S)—N-(2-(diethylamino)propyl)-2-((3-hydroxy-3-methylbutyl)amino)-6-(5-(thiophen-2-yl)pyrazolo[1,5-a]pyrimidin-3-yl)isonicotinamide] |
| 0.1 nM | CCN(CC)[C@@H](C)CNC(=O)c1cc(-c2cnn3ccc(-c4cccs4)nc23)nc(N2CC(C)(O)C2)c1 [Example 226, (S)—N-(2-(diethylamino)propyl)-2-(3-hydroxy-3-methylazetidin-1-yl)-6-(5-(thiophen-2-yl)pyrazolo[1,5-a]pyrimidin-3-yl)isonicotinamide] |
| 0.07 nM | CCN(CC)[C@@H](C)CNC(=O)c1cc(-c2cnn3ccc(-c4cccs4)nc23)nc(N2CC(C)(OC)C2)c1 [Example 227, (S)—N-(2-(diethylamino)propyl)-2-(3-methoxy-3-methylazetidin-1-yl)-6-(5-(thiophen-2-yl)pyrazolo[1,5-a]pyrimidin-3-yl)isonicotinamide] |
| 0.06 nM | CCN(CC)[C@@H](C)CNC(=O)c1cc(Nc2cn[nH]c2)nc(-c2cnn3ccc(-c4cccs4)nc23)c1 [Example 231, (S)-2-((1H-pyrazol-4-yl)amino)-N-(2-(diethylamino)propyl)-6-(5-(thiophen-2-yl)pyrazolo[1,5-a]pyrimidin-3-yl)isonicotinamide] |
| 0.13 nM | CCN(CC)[C@@H](C)CNC(=O)c1cc(NCc2ncc[nH]2)nc(-c2cnn3ccc(-c4cccs4)nc23)c1 [Example 237, (S)-2-(((1H-imidazol-2-yl)methyl)amino)-N-(2-(diethylamino)propyl)-6-(5-(thiophen-2-yl)pyrazolo[1,5-a]pyrimidin-3-yl)isonicotinamide] |
